Data published in PubChem BioAssay (NCI).
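Growth conditions: 96-well plates. Treatment: test compound, 48 hours, 5 concentrations. Analysis: linear interpolation between bracketing concentrations; unreached endpoints set to highest concentration. GI50 = concentration required for 50% inhibition of growth. TGI marks complete inhibition of growth.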

Assays:
Experiment in all cases: DTP human tumour cell line panel, 48 h
NCI-H460 lung = test system: NCI-H460 lung
HCT-15 colon = test system: HCT-15 colon
SF-539 CNS = test system: SF-539 CNS
UO-31 renal = test system: UO-31 renal
HL-60(TB) leukemia = test system: HL-60(TB) leukemia
CAKI-1 renal = test system: CAKI-1 renal
NCI-H23 lung = test system: NCI-H23 lung
SF-295 CNS = test system: SF-295 CNS
SF-268 CNS = test system: SF-268 CNS
MDA-MB-231 breast = test system: MDA-MB-231 breast
PC-3 prostate = test system: PC-3 prostate
HOP-62 NSCLC = test system: HOP-62 NSCLC
A498 renal = test system: A498 renal
M14 melanoma = test system: M14 melanoma
SK-MEL-28 melanoma = test system: SK-MEL-28 melanoma
NCI-H522 lung = test system: NCI-H522 lung
K-562 leukemia = test system: K-562 leukemia
EKVX NSCLC = test system: EKVX NSCLC
SW-620 colon = test system: SW-620 colon
MALME-3M melanoma = test system: MALME-3M melanoma
OVCAR-8 ovarian = test system: OVCAR-8 ovarian
UACC-62 melanoma = test system: UACC-62 melanoma
T-47D breast = test system: T-47D breast
OVCAR-3 ovarian = test system: OVCAR-3 ovarian
U251 CNS = test system: U251 CNS
NCI/ADR-RES ovarian = test system: NCI/ADR-RES ovarian
DU-145 prostate = test system: DU-145 prostate
MDA-MB-435 = test system: MDA-MB-435
HCC-2998 colon = test system: HCC-2998 colon
MCF7 breast = test system: MCF7 breast
SR leukemia = test system: SR leukemia
SK-OV-3 ovarian = test system: SK-OV-3 ovarian
IGROV1 ovarian = test system: IGROV1 ovarian
SK-MEL-5 melanoma = test system: SK-MEL-5 melanoma
HOP-92 NSCLC = test system: HOP-92 NSCLC
RXF 393 renal = test system: RXF 393 renal
BT-549 breast = test system: BT-549 breast
HS 578T breast = test system: HS 578T breast
LOX IMVI melanoma = test system: LOX IMVI melanoma
786-0 renal = test system: 786-0 renal
SK-MEL-2 melanoma = test system: SK-MEL-2 melanoma
HT29 colon = test system: HT29 colon
SNB-19 CNS = test system: SNB-19 CNS
KM12 colon = test system: KM12 colon
UACC-257 melanoma = test system: UACC-257 melanoma
TK-10 renal = test system: TK-10 renal
ACHN renal = test system: ACHN renal
RPMI-8226 leukemia = test system: RPMI-8226 leukemia
OVCAR-5 ovarian = test system: OVCAR-5 ovarian
NCI-H226 lung = test system: NCI-H226 lung
SN12C renal = test system: SN12C renal
A549 NSCLC = test system: A549 NSCLC
SNB-75 CNS = test system: SNB-75 CNS
CCRF-CEM leukemia = test system: CCRF-CEM leukemia
COLO 205 colon = test system: COLO 205 colon
OVCAR-4 ovarian = test system: OVCAR-4 ovarian
HCT-116 colon = test system: HCT-116 colon

**Q.** What does the source list for `CC1CN=C(c2cccc(-c3ccc(-c4ccccc4)o3)c2)N1` (centres undefined)?
**A.** GI50 (NCI-H460 lung): 1.83 µM; TGI (NCI-H460 lung): 4.24 µM; GI50 (HCT-15 colon): 1.66 µM; TGI (HCT-15 colon): 3.47 µM; GI50 (SF-539 CNS): 1.76 µM; TGI (SF-539 CNS): 3.42 µM; GI50 (UO-31 renal): 1.62 µM; TGI (UO-31 renal): 3.32 µM; GI50 (HL-60(TB) leukemia): 2.28 µM; TGI (HL-60(TB) leukemia): 4.7 µM; GI50 (CAKI-1 renal): 2.55 µM; TGI (CAKI-1 renal): 9.19 µM; GI50 (NCI-H23 lung): 2.97 µM; TGI (NCI-H23 lung): 12.5 µM; GI50 (SF-295 CNS): 1.81 µM; TGI (SF-295 CNS): 3.84 µM; GI50 (SF-268 CNS): 1.83 µM; TGI (SF-268 CNS): 3.78 µM; GI50 (MDA-MB-231 breast): 2.2 µM; TGI (MDA-MB-231 breast): 4.49 µM; GI50 (PC-3 prostate): 2.04 µM; TGI (PC-3 prostate): 5.17 µM; GI50 (HOP-62 NSCLC): 2.6 µM; TGI (HOP-62 NSCLC): 6.37 µM; GI50 (A498 renal): 2.74 µM; TGI (A498 renal): 10.6 µM; GI50 (M14 melanoma): 2.23 µM; TGI (M14 melanoma): 5.63 µM; GI50 (SK-MEL-28 melanoma): 1.81 µM; TGI (SK-MEL-28 melanoma): 4.02 µM; GI50 (NCI-H522 lung): 1.67 µM; TGI (NCI-H522 lung): 3.65 µM; GI50 (K-562 leukemia): 1.72 µM; TGI (K-562 leukemia): 3.91 µM; GI50 (EKVX NSCLC): 4.35 µM; TGI (EKVX NSCLC): 18.9 µM; GI50 (SW-620 colon): 1.85 µM; TGI (SW-620 colon): 3.69 µM; GI50 (MALME-3M melanoma): 1.82 µM; TGI (MALME-3M melanoma): 3.63 µM; GI50 (OVCAR-8 ovarian): 5.98 µM; TGI (OVCAR-8 ovarian): 23.2 µM; GI50 (UACC-62 melanoma): 1.94 µM; TGI (UACC-62 melanoma): 4.06 µM; GI50 (T-47D breast): 1.92 µM; TGI (T-47D breast): 5.05 µM; GI50 (OVCAR-3 ovarian): 3.47 µM; TGI (OVCAR-3 ovarian): 13.7 µM; GI50 (U251 CNS): 2.47 µM; TGI (U251 CNS): 5.88 µM; GI50 (NCI/ADR-RES ovarian): 3.57 µM; TGI (NCI/ADR-RES ovarian): 25.9 µM; GI50 (DU-145 prostate): 4.05 µM; TGI (DU-145 prostate): 15.8 µM; GI50 (MDA-MB-435): 1.61 µM; TGI (MDA-MB-435): 2.99 µM; GI50 (HCC-2998 colon): 1.95 µM; TGI (HCC-2998 colon): 3.65 µM; GI50 (MCF7 breast): 1.71 µM; TGI (MCF7 breast): 3.59 µM; GI50 (SR leukemia): 1.86 µM; TGI (SR leukemia): 5.32 µM; GI50 (SK-OV-3 ovarian): 4.2 µM; TGI (SK-OV-3 ovarian): 14.8 µM; GI50 (IGROV1 ovarian): 2.08 µM; TGI (IGROV1 ovarian): 5.14 µM; GI50 (SK-MEL-5 melanoma): 1.71 µM; TGI (SK-MEL-5 melanoma): 3.11 µM; GI50 (HOP-92 NSCLC): 2.13 µM; TGI (HOP-92 NSCLC): 5.67 µM; GI50 (RXF 393 renal): 1.72 µM; TGI (RXF 393 renal): 3.36 µM; GI50 (BT-549 breast): 10.5 µM; TGI (BT-549 breast): 22.5 µM; GI50 (HS 578T breast): 2.57 µM; TGI (HS 578T breast): 7.26 µM; GI50 (LOX IMVI melanoma): 1.73 µM; TGI (LOX IMVI melanoma): 3.22 µM; GI50 (786-0 renal): 1.84 µM; TGI (786-0 renal): 3.8 µM; GI50 (SK-MEL-2 melanoma): 1.74 µM; TGI (SK-MEL-2 melanoma): 3.57 µM; GI50 (HT29 colon): 2.39 µM; TGI (HT29 colon): 4.93 µM; GI50 (SNB-19 CNS): 2.29 µM; TGI (SNB-19 CNS): 5.47 µM; GI50 (KM12 colon): 2.66 µM; TGI (KM12 colon): 7.92 µM; GI50 (UACC-257 melanoma): 2.31 µM; TGI (UACC-257 melanoma): 4.62 µM; GI50 (TK-10 renal): 4.04 µM; TGI (TK-10 renal): 14.4 µM; GI50 (ACHN renal): 1.85 µM; TGI (ACHN renal): 3.89 µM; GI50 (RPMI-8226 leukemia): 2.43 µM; TGI (RPMI-8226 leukemia): 7.05 µM; GI50 (OVCAR-5 ovarian): 2.11 µM; TGI (OVCAR-5 ovarian): 5.41 µM; GI50 (NCI-H226 lung): 14.3 µM; TGI (NCI-H226 lung): 39.4 µM; GI50 (SN12C renal): 3.59 µM; TGI (SN12C renal): 15.4 µM; GI50 (A549 NSCLC): 3.68 µM; TGI (A549 NSCLC): 11.2 µM; GI50 (SNB-75 CNS): 1.47 µM; TGI (SNB-75 CNS): 2.84 µM; GI50 (CCRF-CEM leukemia): 2.44 µM; TGI (CCRF-CEM leukemia): 6.78 µM; GI50 (COLO 205 colon): 1.61 µM; TGI (COLO 205 colon): 3.25 µM; GI50 (OVCAR-4 ovarian): 3.01 µM; TGI (OVCAR-4 ovarian): 19.5 µM; GI50 (HCT-116 colon): 1.81 µM; TGI (HCT-116 colon): 3.69 µM
